According to the NIST ThermoML archive (doi:10.1021/je8008073):

Experiment: wn = mass fraction of the nth substance listed
Conditions: Liquid; for mass density: Vibrating tube method; for viscosity: Falling or rolling sphere viscometry

c1ccc2c(c1)CCCC2 [1,2,3,4-tetrahydronaphthalene] + CCCCCCCCCCCC
Conditions	mass density [kg/m3]	viscosity [mPa·s]
293.15 K, 100 kPa, w2 = 0.5	844.4	–
293.15 K, 2000 kPa, w2 = 0.5	845.7	–
293.15 K, 4000 kPa, w2 = 0.5	846.8	–
293.15 K, 6000 kPa, w2 = 0.5	848	–
293.15 K, 8000 kPa, w2 = 0.5	849.5	–
293.15 K, 10000 kPa, w2 = 0.5	850.8	–
293.15 K, 12000 kPa, w2 = 0.5	851.9	–
293.15 K, 14000 kPa, w2 = 0.5	853.1	–
293.15 K, 16000 kPa, w2 = 0.5	854.2	–
293.15 K, 18000 kPa, w2 = 0.5	855.4	–
293.15 K, 20000 kPa, w2 = 0.5	856.6	–
295.65 K, 100 kPa, w2 = 0.5	842.4	–
295.65 K, 2000 kPa, w2 = 0.5	843.6	–
295.65 K, 4000 kPa, w2 = 0.5	844.9	–
295.65 K, 6000 kPa, w2 = 0.5	846	–
295.65 K, 8000 kPa, w2 = 0.5	847.4	–
295.65 K, 10000 kPa, w2 = 0.5	848.6	–
295.65 K, 12000 kPa, w2 = 0.5	849.8	–
295.65 K, 14000 kPa, w2 = 0.5	851	–
295.65 K, 16000 kPa, w2 = 0.5	852.1	–
295.65 K, 18000 kPa, w2 = 0.5	853.3	–
295.65 K, 20000 kPa, w2 = 0.5	854.4	–
298.15 K, 100 kPa, w1 = 0.48	835.7	–
298.15 K, 100 kPa, w1 = 0.49	838.4	–
298.15 K, 100 kPa, w1 = 0.5	840.7	–
298.15 K, 100 kPa, w1 = 0.51	842.7	–
298.15 K, 100 kPa, w1 = 0.52	844.8	–
298.15 K, 100 kPa, w2 = 0.5	840.7	1.46
298.15 K, 2000 kPa, w1 = 0.48	836.9	–
298.15 K, 2000 kPa, w1 = 0.49	839.7	–
298.15 K, 2000 kPa, w1 = 0.5	842	–
298.15 K, 2000 kPa, w1 = 0.51	844	–
298.15 K, 2000 kPa, w1 = 0.52	846.1	–
298.15 K, 2000 kPa, w2 = 0.5	842	–
298.15 K, 4000 kPa, w1 = 0.48	838.3	–
298.15 K, 4000 kPa, w1 = 0.49	841	–
298.15 K, 4000 kPa, w1 = 0.5	843.4	–
298.15 K, 4000 kPa, w1 = 0.51	845.3	–
298.15 K, 4000 kPa, w1 = 0.52	847.5	–
298.15 K, 4000 kPa, w2 = 0.5	843.4	1.53
298.15 K, 6000 kPa, w1 = 0.48	839.6	–
298.15 K, 6000 kPa, w1 = 0.49	842.2	–
298.15 K, 6000 kPa, w1 = 0.5	844.7	–
298.15 K, 6000 kPa, w1 = 0.51	846.5	–
298.15 K, 6000 kPa, w1 = 0.52	848.7	–
298.15 K, 6000 kPa, w2 = 0.5	844.7	–
298.15 K, 8000 kPa, w1 = 0.48	840.9	–
298.15 K, 8000 kPa, w1 = 0.49	843.5	–
298.15 K, 8000 kPa, w1 = 0.5	845.9	–
298.15 K, 8000 kPa, w1 = 0.51	847.8	–
298.15 K, 8000 kPa, w1 = 0.52	849.9	–
298.15 K, 8000 kPa, w2 = 0.5	845.9	–
298.15 K, 10000 kPa, w1 = 0.48	842.1	–
298.15 K, 10000 kPa, w1 = 0.49	844.7	–
298.15 K, 10000 kPa, w1 = 0.5	847.1	–
298.15 K, 10000 kPa, w1 = 0.51	848.8	–
298.15 K, 10000 kPa, w1 = 0.52	851.1	–
298.15 K, 10000 kPa, w2 = 0.5	847.1	1.64
298.15 K, 12000 kPa, w1 = 0.48	843.3	–
298.15 K, 12000 kPa, w1 = 0.49	845.9	–
298.15 K, 12000 kPa, w1 = 0.5	848.4	–
298.15 K, 12000 kPa, w1 = 0.51	850.3	–
298.15 K, 12000 kPa, w1 = 0.52	852.2	–
298.15 K, 12000 kPa, w2 = 0.5	848.4	–
298.15 K, 14000 kPa, w1 = 0.48	844.6	–
298.15 K, 14000 kPa, w1 = 0.49	847.1	–
298.15 K, 14000 kPa, w1 = 0.5	849.5	–
298.15 K, 14000 kPa, w1 = 0.51	851.5	–
298.15 K, 14000 kPa, w1 = 0.52	853.5	–
298.15 K, 14000 kPa, w2 = 0.5	849.5	–
298.15 K, 16000 kPa, w1 = 0.48	845.7	–
298.15 K, 16000 kPa, w1 = 0.49	848.3	–
298.15 K, 16000 kPa, w1 = 0.5	850.7	–
298.15 K, 16000 kPa, w1 = 0.51	852.7	–
298.15 K, 16000 kPa, w1 = 0.52	854.6	–
298.15 K, 16000 kPa, w2 = 0.5	850.7	–
298.15 K, 18000 kPa, w1 = 0.48	846.9	–
298.15 K, 18000 kPa, w1 = 0.49	849.3	–
298.15 K, 18000 kPa, w1 = 0.5	851.9	–
298.15 K, 18000 kPa, w1 = 0.51	853.8	–
298.15 K, 18000 kPa, w1 = 0.52	855.7	–
298.15 K, 18000 kPa, w2 = 0.5	851.9	–
298.15 K, 20000 kPa, w1 = 0.48	848.1	–
298.15 K, 20000 kPa, w1 = 0.49	850.6	–
298.15 K, 20000 kPa, w1 = 0.5	853	–
298.15 K, 20000 kPa, w1 = 0.51	855	–
298.15 K, 20000 kPa, w1 = 0.52	857	–
298.15 K, 20000 kPa, w2 = 0.5	853	–
300.65 K, 100 kPa, w2 = 0.5	838.8	–
300.65 K, 2000 kPa, w2 = 0.5	840	–
300.65 K, 4000 kPa, w2 = 0.5	841.3	–
300.65 K, 6000 kPa, w2 = 0.5	842.5	–
300.65 K, 8000 kPa, w2 = 0.5	843.8	–
300.65 K, 10000 kPa, w2 = 0.5	845	–
300.65 K, 12000 kPa, w2 = 0.5	846.3	–
300.65 K, 14000 kPa, w2 = 0.5	847.5	–
300.65 K, 16000 kPa, w2 = 0.5	848.8	–
300.65 K, 18000 kPa, w2 = 0.5	849.9	–
300.65 K, 20000 kPa, w2 = 0.5	851	–
303.15 K, 100 kPa, w2 = 0.5	837.3	–
303.15 K, 2000 kPa, w2 = 0.5	838.5	–
303.15 K, 4000 kPa, w2 = 0.5	839.9	–
303.15 K, 6000 kPa, w2 = 0.5	841.1	–
303.15 K, 8000 kPa, w2 = 0.5	842.4	–
303.15 K, 10000 kPa, w2 = 0.5	843.6	–
303.15 K, 12000 kPa, w2 = 0.5	844.9	–
303.15 K, 14000 kPa, w2 = 0.5	846.1	–
303.15 K, 16000 kPa, w2 = 0.5	847.5	–
303.15 K, 18000 kPa, w2 = 0.5	848.7	–
303.15 K, 20000 kPa, w2 = 0.5	849.8	–
